Results reported in PMC12598616, “Design and optimization of caspase-1-responsive fluorescent probes for pyroptosis imaging and anti-pyroptosis drug screening” (Chemical Science, 2025).

System: activated Cas-1 in primary peritoneal macrophages
Test: High-content screening / fluorescence imaging for caspase-1 modulators in primary peritoneal macrophages
Assay type: cell-based, mouse
Conditions: LPS then Nig 10 μM 2 h; FPy1 5 μM
Source text: The efficient and rapid discovery of Cas-1 modulators is of significant importance considering the therapeutic potential of Cas-1 in various diseases.[39,40] Therefore, we employed FPy1 to construct a high-content screening system aimed at identifying Cas-1 modulators. The level of activated Cas-1 in cells is influenced by multiple factors. To reduce the impact of factors that affect Cas-1 activation in cells, we utilized the NLRP3 inflammasome-mediated Cas-1 activation model, administering the drug during the second stage where the zymogen was converted into activated Cas-1. MCC950, a selective NLRP3 inflammasome inhibitor that could suppress Cas-1 activation, was selected as the positive drug.[41] […] To validate the efficacy of the Cas-1 modulator screening system (Fig. 6a), we first observed the fluorescence images of PMs stained with FPy1 (5 μM) in the control group, model group, and positive drug group. […] Subsequently, the impact of 25 natural products (10 μM) on activated Cas-1 were studied using high-content analysis (Fig. S20). […] To determine whether deoxyshikonin directly binds to Cas-1 and inhibits its activity, we conducted fluorescence detection following co-incubation of deoxyshikonin, FPy1 and Cas-1. […]
Harvested rat discs were fixed in 4 % buffered paraformaldehyde for 24 hours, decalcified in 10 % ethylenediaminetetraacetic acid (EDTA, Solarbio, E8030) solution for 1 month, embedded in paraffin, and sectioned at a thickness of 5 μm. […] Stained sections were evaluated by three independent raters, blinded to the research protocol, and measurements were averaged for statistical analysis. […]
In vivo fluorescence imaging of intervertebral disc degeneration
Twelve rats were modeled with needle puncture-induced intervertebral disc degeneration at the Co5/6, Co6/7 and Co 7/8 levels. […] In vivo fluorescence images were acquired using an in vivo Imaging System (PerkinElmer). […]
In vivo fluorescence imaging of osteoarthritis […]

In the case of “–FLTDG– [FPy1, RhoB donor, hNR quencher]”, the “fluorescence of FPy1-stained macrophages, model vs control group” value is reported as “significant fluorescence enhancement compared to the control group”.
